According to patent US4886806A, “Flavone-3-carboxylic acids compounds and pharmaceutical compositions containing them” (Kali-Chemie Pharma GmbH, priority 1987, dated 1989):
Read-outs that look alike come from different tables or passages of the source.

Columns and labels:
Lipoxygenase = experiment: LTB4 synthesis and inhibition test (lipoxygenase inhibition in vitro) in polymorphonuclear leucocytes; format: cell-based; conditions: PMNL; for inhibition at 100 µM: Homo sapiens, read-out: Lipoxygenase inhib. in vitro, % inhibition of the LTB4 synthesis at 10^-4 Mol/l
Method: 2. In order to investigate the lipoxygenase-inhibiting properties, the inhibiting effect of the substances on the biosynthesis of leucotriene B4 (=LTB4) from arachidonic acid by activated inflamed cells was determined in vitro. Leucotriene B4, a dihydroxy fatty acid which plays an important role not only in the inflammation but also in allergic reactions was oxidatively formed, starting from arachidonic acid, by oxidation through the action of the enzyme lipoxygenase.
LTB4 Synthesis and Inhibition Test.
The combined extracts were evaporated under vacuum to dryness and the residue was taken up in 0.5 ml 30% aqueous methanol and was analyzed with the aid of high pressure liquid chromatography with phase reversal (=reversed phase-HPLC). The stationary phase (=separating medium) consisted of silica gel containing octadecyl groups chemically bound thereto (=RSIL C18 HP; produced by Autech, Darfield, Ill.). The solvent mixture is methanol:water:acetic acid (67:33:0.1; v/v/v), which had been adjusted to a pH value of 6.2 with NH3 /H2 O. The flow velocity was 1 ml/min. […] The LTB4 signals were compared with those of the control (cell incubation with solvent) and reported as percent inhibition of LTB4 synthesis compared with the controls.

[1] = test system: oxygen radical-forming activity of activated peritoneal exudate cells (PEC) of mice; experiment: Peak chemiluminescence (CL) test: inhibition of oxygen radical liberation from activated peritoneal exudate cells; format: cell-based; conditions: 10^-4 Mol substance/l, added at peak of cell activity; for inhibition at 100 µM (stock): Mus musculus, read-out: Inhibition in vitro of the oxygen radical liberation, Chemiluminescence Test % inhibition, Pk. CL
Method: 1. To determine the inhibiting effect on the oxygen radical-forming activity of inflamed cells, the in vitro inhibition of the release of oxygen radicals from activated peritoneal exudate cells (=PEC) of mice was determined in the chemiluminescence (CL) test according to the method of Mueller-Peddinghaus (Int. J. Immunopharmac. 6, 455-466 (1984)). […] The intensity of the chemiluminescence is a measurement of the oxygen radical content in the suspension and thus the degree of activity of the inflamed cells. In this, three functionally different parameters are detected, the spontaneous CL, the induced CL and the peak CL. The spontaneous CL and the induced CL on the one hand and the peak CL on the other hand differ from each other because in the first two parameters the test substances are in contact with the cells for a 30 minute preincubation period before the inflammation irritant is added, whereas with the peak CL the cells are first stimulated, and the test substance is added at the peak of their activity. The measurement of the spontaneous CL thus detects the influence of the test substance on the relative rest activity of inflamed cells, the induced CL represents the effect of the test substances on the activatability of the cells and the inhibition of the peak CL indicates the effect of the test substances on the maximum activity of the inflamed cells. 1.1 Production of PEC suspension used in the test. In order to induce the PEC formation, female mice of 20-25 g body weight were each injected i.p. with 2 ml of a 3% solution of thioglycollate in sterile isotonic sodium chloride solution. Twenty four hours after the thioglycollate injection the cells, which predominantly consisted of polymorphonuclear leucocytes, were recovered by washing out of the abdominal cavity and washed twice. As cell culture medium there was added a commercially available solution under the designation RPMI 1640 (pH 7.2) (produced by Flow Laboratories, […], Germany), which contains 10% fetal calf serum (FCS, produced by Seromed GmbH, Munich, Germany) 18 μmol/l sodium bicarbonate and 2 μmol/l L-glutamine. The cell pellets of four animals each time were resuspended in cell culture medium, collected together and the suspension was made up to 2×10^6 cells per ml with cell culture medium. The cell suspensions were kept under ice cooling until their use the same day. 1.2 Production of the complement opsonized zymosan (=ZyC3 b) suspension used for activation. 200 mg zymosan (glycoprotein mixture isolated from the cell walls of brewer's yeast, Sacchomyces […], produced by Sigma Chemical Co., Munich, Germany) were suspended in 10 ml phosphate buffer solution according to Dulbecco (produced by Flow Laboratories, […], Germany), well stirred and heated for thirty minutes in a water bath to 100° C. After cooling, it was centrifuged for five minutes at 4° C. and at 600 ×g and the supernatant was discarded. The sediment was resuspended in 50 ml human serum and incubated for thirty minutes at 37° C. in a shaking water bath. Then it was centrifuged for five minutes at 600 ×g and 420 C., the supernatant decanted and the sediment washed with phosphate buffer solution. The working suspension of 8×10^-3 g ZyC3 b/ml was produced from the sediment by dilution with phosphate buffer solution (Mueller-Peddinghaus et al., Zbl. Vet. Med. B. 30, 559-575). 1.3 Chemiluminescence (CL) measurement (Peak-CL). The PEC suspension was divided into samples of 100 μl each, placed in test tubes, and these were incubated for ten minutes at a temperature of 3720 C. in a measurement device (Chemiluminescence analyzer, Laboratorium Prof. Berthold, Wildbad, Germany). Then in order to amplify the chemiluminescence, 100 μl lucigenin solution was added (final concentration 1.54×10^-4 mol/l) and incubated for 16 more minutes. The cells were then activated by the addition of 100 μl of the ZyC3 b suspension produced as described in section 1.2 plus 100 μl phosphate buffer solution. […]

[2] = 10^-4 Mol/l, Ca-ionophore A 23187, arachidonic acid

SMILES: CC(=O)Oc1cc(-c2oc3ccccc3c(=O)c2C(=O)N2CCN(c3ccccn3)CC2)cc(OC(C)=O)c1OC(C)=O [Example 39b]
- inhibition at 100 µM (Lipoxygenase; [2]): 93%
- inhibition at 100 µM (stock) [1]: 99%

SMILES: O.O.O=C(O)C(O)C(O)C(=O)O.O=C(c1c(-c2cc(O)c(O)c(O)c2)oc2ccccc2c1=O)N1CCN(Cc2ccccc2)CC1 [Example 14e, 3',4',5'-trihydroxy-3-[(4-benzylpiperazin-1-yl)carbonyl] -flavone tartrate dihydrate]
- inhibition at 100 µM (Lipoxygenase): 86%
- inhibition at 100 µM (stock) [1]: 99%

SMILES: CCN(CC)CCCOC(=O)c1c(-c2ccccc2)oc2ccccc2c1=O.Cl [Example 3b, 3-[3-(diethylamino)propoxycarbonyl]flavone hydrochloride]
- inhibition at 100 µM (Lipoxygenase; [2]): 8%
- inhibition at 100 µM (stock) [1]: 61%

SMILES: O.O=C(O)C(O)C(O)C(=O)O.O=C(c1c(-c2ccccc2)oc2ccccc2c1=O)N1CCN(Cc2ccccc2)CC1 [Example 2b, 3-[(4-benzyl-piperazin-1-yl)-carbonyl]flavone tartrate monohydrate]
- inhibition at 100 µM (Lipoxygenase): 92%
- inhibition at 100 µM (stock) [1]: 58%

SMILES: COc1cc(OC)c2c(=O)c(C(=O)N3CCN(c4ccccn4)CC3)c(-c3ccccc3)oc2c1 [Example 34]
- inhibition at 100 µM (Lipoxygenase; [2]): 25%
- inhibition at 100 µM (stock) [1]: 25%

SMILES: CN1CCN(CCCCNC(=O)c2c(-c3ccccc3)oc3ccccc3c2=O)CC1 [Example 24]
- inhibition at 100 µM (Lipoxygenase; [2]): 46%
- inhibition at 100 µM (stock) [1]: 1%

SMILES: O=C(NCCc1ccccn1)c1c(-c2cc(O)c(O)c(O)c2)oc2ccccc2c1=O [Example 53]
- inhibition at 100 µM (Lipoxygenase; [2]): 77%
- inhibition at 100 µM (stock) [1]: 77%

SMILES: Cl.O=C(c1c(-c2ccccc2)oc2ccccc2c1=O)N1CCN(c2ccccn2)CC1 [Example 1c, 3-{[4-(2-Pyridyl)-piperazin-1-yl]-carbonyl}flavone hydrochloride]
- inhibition at 100 µM (Lipoxygenase; [2]): 52%
- inhibition at 100 µM (stock) [1]: 47%

SMILES: COc1cc(-c2oc3ccccc3c(=O)c2C(=O)NCCCCN2CCN(c3ncccn3)CC2)cc(OC)c1OC [Example 54]
- inhibition at 100 µM (Lipoxygenase; [2]): 44%
- inhibition at 100 µM (stock) [1]: 72%

SMILES: O=C(NCCCCN1CCN(c2ccccn2)CC1)c1c(-c2ccccc2)oc2ccccc2c1=O [Example 4e, 3-{4-[4-(2-pyridyl)-piperazin-1-yl]-butylaminocarbonyl}flavone]
- inhibition at 100 µM (Lipoxygenase; [2]): 10%
- inhibition at 100 µM (stock) [1]: 76%

SMILES: COc1ccc(-c2oc3ccccc3c(=O)c2C(=O)N2CCN(c3ccccn3)CC2)cc1OC [Example 32b]
- inhibition at 100 µM (Lipoxygenase; [2]): 25%
- inhibition at 100 µM (stock) [1]: 56%

SMILES: COc1cc(-c2oc3ccccc3c(=O)c2C(=O)N2CCN(c3ccccn3)CC2)cc(OC)c1OC [Example 7b, 3',4',5'-trimethoxy-3-{[4-(2-pyridyl)-piperazin-1-yl]-carbonyl}flavone]
- Lipoxygenase inhib. in vitro, % inhibition of the LTB4 synthesis at 10^-4 Mol/l (Lipoxygenase; [2]): 42%
- Inhibition in vitro of the oxygen radical liberation, Chemiluminescence Test % inhibition, Pk. CL [1]: 44%

SMILES: O=C(c1c(-c2cccc(O)c2)oc2ccccc2c1=O)N1CCN(Cc2ccccc2)CC1 [Example 30]
- inhibition at 100 µM (Lipoxygenase; [2]): 44%
- inhibition at 100 µM (stock) [1]: 85%

SMILES: COc1cc(-c2oc3ccccc3c(=O)c2C(=O)N2CCN(c3ccccn3)CC2)cc(OC)c1OC [Example 7a, 3',4',5'-trimethoxy-3-{[4-(2-pyridyl)-piperazin-1-yl]-carbonyl}flavone]
- inhibition at 100 µM (Lipoxygenase; [2]): 38%
- Inhibition in vitro of the oxygen radical liberation, Chemiluminescence Test % inhibition, Pk. CL [1]: 68%
